{"source": "paper PMC9368490", "about": "“Exploring the Molecular Interactions of Symmetrical and Unsymmetrical Selenoglycosides with Human Galectin-1 and Galectin-3” (International Journal of Molecular Sciences, 2022)", "key": {"Gal-1": {"target": "T1, Gal-1 (Homo sapiens, UniProt P09382)", "T1 construct": "gene LGALS1", "T1 sequence (P09382 whole entry)": "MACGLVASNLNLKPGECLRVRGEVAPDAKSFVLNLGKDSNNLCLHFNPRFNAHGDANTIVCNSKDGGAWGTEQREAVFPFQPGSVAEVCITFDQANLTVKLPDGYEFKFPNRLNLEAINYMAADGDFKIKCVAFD", "experiment": "biochemical"}, "Gal-3^CRD": {"target": "T2, Gal-3^CRD (Homo sapiens, UniProt P17931)", "T2 construct": "gene LGALS3", "T2 sequence (P17931 112-250)": "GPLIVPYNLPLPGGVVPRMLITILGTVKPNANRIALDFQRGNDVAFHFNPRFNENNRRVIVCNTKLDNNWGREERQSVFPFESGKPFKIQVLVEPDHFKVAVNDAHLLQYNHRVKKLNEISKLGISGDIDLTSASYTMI", "experiment": "biochemical"}}}
{"compound": "OC[C@H]1O[C@@H]([Se][C@@H]2O[C@H](CO)[C@H](O)[C@H](O)[C@H]2O)[C@H](O)[C@@H](O)[C@H]1O", "note": "[SeDG]", "values": [{"measurement": "Kd", "setting": "Gal-1", "value": "23.7 ± 4.2", "unit": "µM"}, {"measurement": "Kd", "setting": "Gal-3^CRD", "value": "20.2 ± 2.2", "unit": "µM"}]}
